The test system of the assay is mice. In words: Cecal ligation puncture (CLP) model of sepsis. The class given is in vivo, mouse. The source says:
Knockout of Panx1 specifically from the endothelium or treatment of mice with PanX both reversed the decreased in heat rate typically observed after induction of sepsis. […] Knockout of Panx1 specifically from the endothelium or treatment of mice with PanX both reversed the increased level of blood urea nitrogen, which is due in large part to increased vein permeability in sepsis. The three groups in each graph are Control (left bar), Panx1 Endothelial Cell Knockout Mouse (middle bar), and Control+IL2 (PanX) Peptide treatment.

KYPIVEQYLKYGRKKQRRR [IL2]: the “effect on decreased heart rate after induction of sepsis” value is recorded as “reversed” and the “effect on increased blood urea nitrogen after induction of sepsis” value is “reversed”.
